Here are results for nine compounds from US5468472A, “Topical process for lightening the skin or treating pigmental blemishes using a composition containing 4-thioresorcin derivatives” (L'Oreal, priority 1993, dated 1995).

Molecules are shown by their SMILES.

The test system of this experiment is fungal tyrosinase. In words: in vitro inhibition test of the activity of tyrosinase (dopachrome formation, 475 nm). In kind it is biochemical. As to conditions: inhibitor at 50 mol % with respect to tyrosine; lowering of maximum dopachrome (OD 475 nm at plateau) vs no inhibitor; pH 6.5, 25° C. The text has this:
According to this test, the amount of dopachrome formed during the chain of reactions of conversion of tyrosine to melanins is monitored by visible spectrometry at 475 nm.
The concentration of dopachrome formed with time in the presence and in the absence of the inhibitor thus measured.
The inhibitor concentrations are set at 50 mol % with respect to the concentration of tyrosine in the reaction medium.
The inhibition effect is expressed by the lowering in the maximum amount of dopachrome formed (optical density value at 475 nm read at the plateau of the curve) with respect to the amount obtained in the absence of inhibitor.
A - 0.1M Phosphate buffer, pH=6.5 (1% Tween 20)
B - 2.10^-3 M Mother solution of L-tyrosine in A
C - 10^-4 M Mother solution of L-dopa in A
D - Mother solution of fungal tyrosinase in A containing 2,400 units/ml
E - 10^-2 M Mother solution of the inhibitor in A (Solutions C and D are to be prepared on the day)
reference cell: 3 ml of A
homogenize and equilibrate at 25° C.
mix rapidly and observe the kinetics by measuring the absorbence at 475 nm as a function of time.

With `CSc1ccc(O)cc1O`, the “% change in maximum dopachrome vs no inhibitor” value (from here on “% change … vs no inhibitor”) is given as -90%.

As to `CCSc1ccc(O)cc1O`, the “% change … vs no inhibitor” value is on record as -88%.

Take `Oc1ccc(SCc2ccccc2)c(O)c1`: the “% change … vs no inhibitor” value is reported as -95%.

For the compound `Oc1ccc(SCCSc2ccc(O)cc2O)c(O)c1`, the “% change … vs no inhibitor” value is on record as -79%.

`CCCSc1ccc(O)cc1O`: the “% change … vs no inhibitor” value is given as -76%.

As to `CC(C)Sc1ccc(O)cc1O`, the “% change … vs no inhibitor” value is -84%.

Take `CCOC(=O)CSc1ccc(O)cc1O`: the “% change … vs no inhibitor” value was -94%.

With `Oc1ccc(SCCCN2CCOCC2)c(O)c1`, the “% change … vs no inhibitor” value is listed as -65%.

In the case of `Oc1ccc(O)cc1` [hydroquinone, reference compound], the “% change … vs no inhibitor” value is on record as -33%.
